Molecules are shown by their SMILES. Entries after “also recorded” stand apart in the source; their conditions may differ.

The conditions of data set [1]: dabigatran chow, ˜10 mg/kg bodyweight per day; cited from earlier work.
Another data set has as its system CTGF. As to the kind of experiment: CTGF levels in RPE/choroid of CNV mice (western blot). In kind it is in vivo, mouse. As to conditions: end of repair period (23 days), P<0.01. The source says:
(§1) Pathway analysis in CNV. Based on the results in cells, an analysis in animals followed, focusing on VEGF levels in the RPE/choroid, complemented by CTGF analysis and complement activation (C3d production and binding). RPE/choroid samples were collected at the end of the angiogenesis experiment (day 6) and after the final OCT analysis in the repair experiment (day 23) and compared to naive controls (no CNV and no dabigatran treatment).

The test system of data set [2] is CTGF expression in ARPE-19 cells. The experiment in a line: Thrombin-induced CTGF expression in ARPE-19 cell lysates (western blot). As to conditions: dabigatran 10 μM, thrombin 1 U/mL.
Method: Cell culture experiments: Cells. Human ARPE-19 (ATCC® CRL-2302™; American Type Culture Collection, Manassas VA) cells were cultured in DMEM cell culture media (Gibco/ThermoFisher Scientific) containing high glucose DMEM with D-glucose (4.5 g/L), L-glutamine, sodium pyruvate (110 mg/L), Penicillin and Streptomycin (1×) and 10% of FBS. Cells (<passage 10 after purchase) were expanded in T75 cell culture flasks at 37° C., in the presence of 5% CO2. Confluent cells were trypsinized with 0.05% trypsin (Gibco), and equal numbers of cells were seeded on 6-well transwell filters/plate (Costar). […] Integrity of the cell monolayer was assessed by Transepithelial resistance (TER) measurements using an EVOM volt-ohmmeter (World Precision Instruments) four weeks after plating. RPE monolayers with a stable TER repeatedly measured as ˜40-45 S2 cm 2 were used for these experiments.
Treatments. Prior to each experiment, the cell monolayer was washed with serum-free medium (SFM) and maintained in SFM for 24 hours. […] Treatments were performed on the apical side of the transwell membrane, which represents the retinal side of the RPE in vivo. Some of the cells were treated with thrombin (EMD Millipore Corp), complement components C3a, C5a (Complement Technology), thrombin agonist PAR1-AP (Sigma-Aldrich; amino acid sequence SFLLRN (SEQ ID NO: 1)), thrombin inhibitor dabigatran etexilate (Sigma-Aldrich), C3 inhibitor compstatin (R&D Systems), AP inhibitor TT30 (Alexion Therapeutics), a protease inhibitor alpha1-antitrypsin (Sigma-Aldrich), and the thrombin receptor proteinase activated receptor 1 inhibitor SCH 79797 (Sigma-Aldrich). Treatments were performed 60 min prior to the addition of thrombin. Cell culture supernatant and lysate were collected after specific time points or after 24 hrs of treatment and stored at −20° C. for later use.
Western blotting. […] Cell lysates were collected in RIPA cell lysis buffer containing 150 mM NaCl, 1.0% IGEPAL® CA-630, 0.5% sodium deoxycholate, 0.1% SDS, 50 mM Tris (pH 8.0) (Sigma-Aldrich) in presence of 1×protease inhibitor (Sigma-Aldrich). Equal amount of each samples were loaded on 4-20% Criterion™ TGX™ precast gels (Bio-Rad Laboratories, Inc.) (Annamalai, B., et al. (2020). Invest Ophthalmol Vis Sci 61, 45). Proteins were transferred to a nitrocellulose membrane and incubated in primary antibody followed by appropriate secondary antibodies coupled to peroxidase, followed by band development and detection using Clarity™ Western ECL blotting substrate (Bio-Rad Laboratories, Inc.) and chemiluminescent detection. Protein bands were scanned and densities quantified using ImageJ software. The following antibodies were used: C3a (1:1000; Complement Technology), C5a (1:1000; Abcam), connective tissue growth factor/CTGF (1:1000; Abcam), C3d anti-C3d (clone 11, 1:1000; generation of the antibody is described in (Thurman, J. M., et al. (2013). J Clin Invest 123, 2218-2230)), VEGF (1:1000, Santa Cruz Biotechnology, Inc.), β-actin (1:2000; Cell Signaling Technology) and concentrations selected based on the data sheet recommendations.
ARPE-19 cell monolayers were treated with thrombin (0.5-10 U/ml) and cell lysates were collected and analyzed for CTGF levels at 4 hrs post treatment by western blotting.
The target in data set [3] is thrombin (Homo sapiens, UniProt P00734). The experiment in a line: Thrombin activity in cell-free system. As to conditions: 10 μM, thrombin 10-500 U/mL.
Method: Thrombin activity in cell-free system. To measure the level of active thrombin in cell-free system, known concentrations of thrombin were prepared in 100 μl of assay buffer (50 mM Tris, 100 mM NaCl, and 0.01% BSA; pH 7.5), subsequently 50 μl of thrombin substrate was added and incubated at 37° C. Fluorescence was measured at 405 nm using the Biotek Synergy HT Microplate Reader and thrombin activity was determined by extrapolation from a thrombin standard curve. Effects of inhibitors were tested by pre-incubating the inhibitors with thrombin, before substrate incorporation.
The subject of a further data set is VEGF. As to the kind of experiment: VEGF levels in RPE/choroid of CNV mice (western blot). In kind it is in vivo, mouse.
Text: as §1
Background: In western blotting, separated proteins are transferred to a membrane and probed.

A further data set deals with complement component C3. As to the kind of experiment: Thrombin-mediated C3 cleavage in apical supernatants of ARPE-19 cells (western blot). The data set is classed as cell-based, human. As to conditions: 10 μM. How it is done: Second, it was tested whether thrombin can cleave complement components (Huber-Lang, M., et al. (2006). Nat Med 12, 682-687; and Krisinger, M. J., et al. (2012). Blood 120, 1717-1725), specifically C3 and C5, producing cleavage products potentially different from those produced by classical convertases. To test the effects of thrombin on complement cleavage, the apical supernatants of treated ARPE-19 cell monolayers were analyzed by western blotting. Cleavage of C3α was evaluated using an antibody specific for C3a (FIG. 5A, left-hand blot). The C3a antibody detected C3, the C3α band as well as other fragments containing C3a. Thrombin caused a concentration dependent cleavage of complement component C3 (˜190 kDa), caused reduction of the 120 kDa C3a band and generation of a new 80 kDa fragment. Fragments at 32 kDa and 9-10 kDa with higher doses of thrombin treatment (FIG. 5A, 10 U/mL) were also observed. The 9-10 kDa band ran at the same molecular weight as purified C3a (FIG. 11). The reduction of the 120 kDa fragment was correlated with the generation of the 80 kDa fragment (FIG. 5B). The loss of the 120 kDa fragment was prevented by either dabigatran (10 μM) or the C3 inhibitor compstatin (100 μM), which inhibits complement both on cell membranes as well as in fluid phase, but not by TT30 (10 μM), which is an inhibitor that prevents membrane-bound AP activation (FIG. 5C). […]

For data set [4], the system named is choroidal neovascularization (CNV) lesions. The experiment in a line: Laser-induced CNV lesion size by OCT in mice fed dabigatran chow. In kind it is in vivo, C57BL/6J mice. The text has this: Mouse model of choroidal neovascularization (CNV): Choroidal neovascularization. C57BL/6J mice (males and females) from the same colony, to guarantee identical microbiome ([…] al., 2016), were recruited to the study at 3 months of age. Argon laser photocoagulation (532 nm, 100 μm spot size, 0.1 s duration, 100 mW) was used to generate 4 laser spots around the optic nerve of each eye (Rohrer et al., 2009), utilizing bubble formation at the site of the laser burn as the inclusion criteria for successful Bruch's membrane rupture (Nozaki et al., 2006). Dabigatran exposure. Mice were fed standard chow fortified with dabigatran etexilate (10 […] of chow; Boehringer Ingelheim). Mice were either fed dabigatran chow during the angiogenesis period of CNV (starting 2 days prior to CNV induction through day 6 when the tissues were collected), or during the wound healing period (starting after the OCT analysis to ensure CNV growth on day 5 through day 23). Optical Coherence Tomography (OCT) analysis. OCT was used to quantify CNV lesion size on day 5 post laser treatment (Schnabolk, G., et al. (2014). Exp Eye Res 129, 18-23; Schnabolk, G., et al. (2015). Invest Ophthalmol Vis Sci; and Coughlin, B., et al. (2016). Sci Rep 6, 23794), or in weekly intervals to document recovery from fibrosis (Parsons, N., et al. (2019). Mol Immunol 108, 8-12) using an SD-OCT Bioptigen® Spectral Domain Ophthalmic Imaging System (Bioptigen Inc., Durham NC). Mice were anesthetized prior to imaging, eyes kept hydrated with normal saline, and body temperature was carefully monitored to prevent anesthesia-induced cataracts. The methods for imaging and analysis have been described (Schnabolk, G., et al. (2014). Exp Eye Res 129, 18-23; Schnabolk, G., et al. (2015). Invest Ophthalmol Vis Sci; Coughlin, B., et al. (2016). Sci Rep 6, 23794; and Parsons, N., et al. (2019). Mol Immunol 108, 8-). Based on the size of the individual pixels (1.6×1.6 μm), the lesion sizes were calculated.

Data set [5] has as its target thrombin (Mus musculus, UniProt P19221). On the procedure: Thrombin activity assay. Thrombin activity was measured according to a methodology described by Ludwicka with modifications (Ohba, T., et al. (1994). Am J Respir Cell Mol Biol 10, 405-412). Thrombin specific peptide Boc-Val-Pro-Arg-7-amido-4-methylcoumarin hydrochloride (Sigma-Aldrich) was reconstituted in molecular grade ice-cold H2O at a concentration of 0.5 mg/ml and used as substrate.
It was test whether dabigatran would alter the course of angiogenesis or repair, by feeding animals with dabigatran chow during the two different phases.

The test system of data set [6] is C3α breakdown products C3d/C3dg and C3α′1. The experiment in a line: Complement activation (C3d) in RPE/choroid of CNV mice (western blot). The data set is classed as in vivo, mouse.
Text: as §1
Unexpectedly, and in contrast to the cell data (FIG. 4), C3d deposition was not reduced by dabigatran.

Take `CCCCCCOC(=O)NC(=N)c1ccc(NCc2nc3cc(C(=O)N(CCC(=O)OCC)c4ccccn4)ccc3n2C)cc1`: in data set [1], the “blood plasma concentration of dabigatran” value was 0.372 ± 0.03 µg/mL and the “elongation of coagulation times” value was 3 fold. Further, the “effect on CTGF levels in RPE/choroid” value in the data set with CTGF was “significantly reduced”. In addition, the “reduction of thrombin-induced CTGF expression” value in data set [2] came to 3.2 fold. Also, the “effect on thrombin enzyme activity” value on thrombin [3] is listed as “significantly reduce”. Further, in the data set on VEGF (6-day time point, angiogenesis phase, P=0.9), the “effect on VEGF levels in RPE/choroid” value is “no effect”. In addition, the “effect on VEGF levels in RPE/choroid” value in the data set on VEGF (23-day time point, repair phase, P=0.001) is “significantly reduced”. Moreover, the “effect on thrombin-mediated loss of the 120 kDa C3 fragment” value in the data set on complement component C3 is reported as “prevented”. Also, the “reduction of CNV lesion sizes” value in [4] (dabigatran from 2 days prior to CNV induction through angiogenesis phase, OCT day 5, insignificant, P=0.2) is on record as ~15%. Moreover, the “CNV lesion size at final time point” value in [4] (dabigatran from day 5 through repair phase, day 23, P<0.02) is on record as “significantly smaller lesions”. Moreover, the “CNV lesion response over time (repair)” value in [4] (repair phase days 5-23, repeated measure ANOVA P<0.0001) is recorded as “significant effect of treatment; also recorded: acceleration of repair”. For the same compound, the “reduction of thrombin activity in retina/RPE/choroid tissues” value at thrombin [5] (mice on dabigatran chow vs control mice, P=0.04) is given as ~10%. In addition, on thrombin [5] (mice on dabigatran chow ˜10 mg/kg per day vs control mice, P=0.003), the “reduction of thrombin activity in serum” value was ~35%. Also, the “thrombin activity in retina/RPE/choroid tissues” value on thrombin [5] (mice on dabigatran chow, control: 100±3.1) is recorded as 91.1±2.6. The “thrombin activity in serum” value at thrombin [5] (mice on dabigatran chow, control: 100±7.6) stood at 65.4±5.1. For the same compound, the “effect on C3d deposition” value in data set [6] (CNV animals, repair phase) is on record as “not reduced”. In addition, the “effect on C3d/C3dg and C3α′1 levels in RPE/choroid” value in data set [6] (end of repair period (23 days), P<0.05) is recorded as “further elevated”.

These data come from US20230381163A1, “DABIGATRAN COMPOSITIONS AND METHODS OF TREATING AGE-RELATED MACULAR DEGENERATION” (The United States Government As Represented By The …, priority 2022, published 2023).
